Measured values reported in patent publication US5861424A, “Composition and method for treating cancer” (priority 1995, dated 1999).
Like-named read-outs stand apart in the source and are kept apart here.

Tests used:
[1] = tested on: human colon carcinoma cell line CX-1; assay: Colony formation assay, human colon carcinoma CX-1; format: cell-based; details: for CX-1 (IC50) / IC50: 24 h treatment, colony count after 7 to 10 days; for Selectivity (ratio of IC50 for CV-1 and IC50 for CX-1): CV-1/CX-1; for IC50: Homo sapiens, Colon carcinoma cell
Experimental: (§1) Human colon carcinoma cell line CX-1 or normal monkey kidney epithelial cell line CV-1 was chosen as representatives of cancer cells and normal cells, respectively. […] CX-1 cells (2,000 cells/well) and CV-1 cells (1,000 cells/well) were plated in 24-well plastic culture plates. […] The control received culture media only. Cells were treated with compounds of General Formulas (1) to (6) at 37° C. for 24 hours. After rinsing with fresh culture medium three times, the cells were further incubated at 37° C. for 7 to 10 days. Cell colonies were fixed and stained with 2% crystal violet in 70% ethanol for 10 minutes and rinsed in water. […] The selectivity is defined as the ratio of IC50 for CV-1 and IC50 for CX-1.

[2] = tested on: normal monkey kidney epithelial cell line CV-1; assay: Colony formation assay, normal monkey kidney epithelial cells CV-1; details: for IC50: Primates, Epithelial cell; for CV-1 (IC50): Table III;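 for all read-outs here: colonies visualized by crystal violet staining, incubation at 37 °C, IC50 relative to untreated wells given culture medium alone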
Experimental: as §1

[3] = read-out: CV-1 (IC50), Table III, 24 h treatment, colony count after 7 to 10 days
[4] = Table III, read-out: CX-1 (IC50)
[5] = 24 h treatment, colony count after 7 to 10 days
[6] = read-out: CX-1 (IC50), Table III

SMILES | CX-1 (IC50) ([1]; Table III) [µg/mL] | Selectivity (ratio of IC50 for CV-1 and IC50 for CX-1) ([1]; Table III) | IC50 [2, 3] [µg/mL] | IC50 [1, 4] [µg/mL] | CV-1 (IC50) [2, 5] [µg/mL] | IC50 [1, 6] [µg/mL] | IC50 ([2]; read-out: CV-1 (IC50)) [µg/mL]
CCN1C(C)=CSC1=CC=c1sc(=C2CCC[n+]3c2sc2ccccc23)n(CC)c1=O [Compound 389] | 0.08 | 188 | 15 |  |  |  | 
CCN1CCSC1=CC=c1sc(=Cc2sc3c4ccccc4ccc3[n+]2CC)n(CC)c1=O [Compound 138] |  | 160 |  | 0.005 | 0.8 |  | 
CCN1C(=CC=c2sc(=CC3=[N+](CC)CCS3)n(CC)c2=O)C=Cc2ccccc21 [Compound 394] |  | 125 |  |  |  | 0.08 | 10
CCN1C(=CC=c2sc(=Cc3[se]c4ccccc4[n+]3CC)n(CC)c2=O)Sc2ccc3ccccc3c21 [Compound 74] |  | 100 |  |  |  | 0.1 | 10
CCN1C(=CC=c2sc(=Cc3sc4c5ccccc5ccc4[n+]3CC)n(-c3ccccc3)c2=O)Sc2ccc3ccccc3c21 [Compound 68] |  | 100 | 5 |  |  |  | 
CCN1C(C)=CSC1=CC=c1sc(=Cc2oc3cc(C)c(C)cc3[n+]2CC)n(CC)c1=O [Compound 388] |  | 261 |  |  |  | 0.03 | 8
CCN1C(=CC=c2sc(=Cc3sc4c5ccccc5ccc4[n+]3CC)n(CC)c2=O)C=Cc2cc(Cl)ccc21 [Compound 253] |  | > 500 | > 20 | 0.04 |  |  | 
CCN1C(=CC=c2sc(=Cc3sc4c5ccccc5ccc4[n+]3CC)n(CC)c2=O)C(C)(C)c2cc(Cl)ccc21 [Compound 220] |  | 125 | 5 | 0.04 |  |  | 
CCN1C=CC=CC1=CC=c1sc(=Cc2sc3ccc4ccccc4c3[n+]2CC)n(CC)c1=O [Compound 398] |  | 400 | 16 | 0.04 |  |  | 
CCN1CCSC1=CC=c1sc(=Cc2sc3cc(OC)c(OC)cc3[n+]2CC)n(CC)c1=O [Compound 134] |  | 100 |  |  |  | 0.1 | 10
CCN1C(=CC=c2sc(=Cc3oc4ccc5ccccc5c4[n+]3CC)n(CC)c2=O)Sc2ccc3ccccc3c21 [Compound 70] |  | 250 |  | 0.04 |  |  | 10
CCN1CCSC1=CC=c1sc(=Cc2oc3c4ccccc4ccc3[n+]2CC)n(CC)c1=O [Compound 390] |  | 250 | 20 |  |  | 0.08 | 
CCOc1cc2c(cc1C)sc(C=c1sc(=CC=C3N(C)c4ccccc4C3(C)C)c(=O)n1CC)[n+]2CC [Compound 209] |  | 100 | 1 | 0.01 |  |  | 
CCN1C(=CC=c2sc(=Cc3cc[n+](CC)c4ccccc34)n(CC)c2=O)C=Cc2cc(Cl)ccc21 [Compound 396] | 0.08 | 250 |  |  |  |  | 
CCN1CCSC1=CC=c1sc(=Cc2sc3cccc(OC)c3[n+]2CC)n(CC)c1=O [Compound 154] |  | 125 | 5 | 0.04 |  |  | 
CCN1C(=CC=c2sc(=Cc3sc4c5ccccc5ccc4[n+]3CC)n(CC)c2=O)C=Cc2cc(C)ccc21 [Compound 254] |  | 100 |  |  |  | 0.1 | 10
CCN1C(=CC=c2sc(=Cc3cc[n+](CC)c4ccccc34)n(CC)c2=O)C=Cc2ccccc21 [Compound 393] | 0.05 | 400 |  |  | 20 |  | 
CCN1C=CC(=CC=c2sc(=Cc3sc4ccc5ccccc5c4[n+]3CC)n(CC)c2=O)c2ccccc21 [Compound 307] |  | 150 | 3 | 0.02 |  |  | 

SMILES | CX-1 (IC50) ([1]; Table III) [µg/mL] | Selectivity (ratio of IC50 for CV-1 and IC50 for CX-1) ([1]; Table III) | IC50 [2, 3] [µg/mL] | IC50 [1, 4] [µg/mL] | CV-1 (IC50) [2, 5] [µg/mL] | IC50 [1, 6] [µg/mL] | IC50 ([2]; read-out: CV-1 (IC50)) [µg/mL]
CCN1C(=CC=c2sc(=Cc3cc[n+](CC)c4ccccc34)n(CC)c2=O)C=Cc2cc(Cl)ccc21 [Compound 395] | 0.2 | 100 | 20 |  |  |  | 
CCOc1ccc2c(c1)C=CC(=CC=c1sc(=Cc3sc4c5ccccc5ccc4[n+]3CC)n(CC)c1=O)N2CC [Compound 252] |  | > 200 | > 20 |  |  | 0.1 | 
CCN1CCSC1=CC=c1sc(=Cc2[se]c3ccccc3[n+]2CC)n(CC)c1=O [Compound 157] |  | 100 |  |  |  | 0.08 | 8
CCN1C(=CC=c2sc(=Cc3sc4c5ccccc5ccc4[n+]3CC)n(CCOC(C)=O)c2=O)Sc2ccc3ccccc3c21 [Compound 67] |  | 200 |  | 0.05 |  |  | 10
CCn1c(=Cc2sc3cc(C)ccc3[n+]2CC)sc(=CC=C2N(C)c3ccccc3C2(C)C)c1=O [Compound 207] |  | 150 | 1.5 | 0.01 |  |  | 
CCN1CCSC1=CC=c1sc(=Cc2oc3cc(Cl)c(Cl)cc3[n+]2CC)n(CC)c1=O [Compound 391] |  | 114 |  | 0.07 |  |  | 8
CCN1C(C)=CSC1=CC=c1sc(=Cc2sc3ccccc3[n+]2CC)n(CC)c1=O [Compound 92] |  | 180 |  | 0.05 | 9 |  | 
CCN1CCSC1=CC=c1sc(=CC2=[N+](CC)CCS2)n(CC)c1=O [Compound 142] |  | 200 | 20 |  |  | 0.1 | 
CCN1CCSC1=CC=c1sc(=Cc2oc3ccc4ccccc4c3[n+]2CC)n(CC)c1=O [Compound 143] |  | 100 | 5 | 0.05 |  |  | 
CCN1C=CC(=CC=c2sc(=Cc3sc4ccccc4[n+]3CC)n(CC)c2=O)C=C1 [Compound 317] |  | 100 | 20 |  |  | 0.2 | 
CCN1C(=CC=c2sc(=Cc3sc4ccc5ccccc5c4[n+]3CC)n(CC)c2=O)Sc2c1ccc1ccccc21 [Compound 20] |  | 200 | 6 |  |  | 0.03 | 
CCN1CCSC1=CC=c1sc(=Cc2sc3ccccc3[n+]2CC)n(CC)c1=O [Compound 137] |  | 100 | 5 | 0.05 |  |  | 
CCN1C(C)=CSC1=CC=c1sc(=C2CCC[n+]3c2sc2ccccc23)n(CC)c1=O [Compound 386] |  | 100 |  |  |  | 0.1 | 10
CCCCC[n+]1c(C=c2sc(=CC=C3SC=C(C)N3CC)c(=O)n2CC)sc2cc(OC)c(OC)cc21 [Compound 399] |  | 100 |  |  |  | 0.1 | 10
CCN1C=C(C)C=CC1=CC=c1sc(=Cc2sc3cc(C)c(C)cc3[n+]2CC)n(CC)c1=O [Compound 397] |  | 400 | 20 | 0.05 |  |  | 
CCn1c(=Cc2cccc[n+]2CC)sc(=CC=C2Sc3ccc4ccccc4c3N2C)c1=O [Compound 385] |  | 100 | 20 |  |  | 0.2 | 
CCN1C(=CC=c2sc(=Cc3sc4c5ccccc5ccc4[n+]3CC)n(CC)c2=O)Sc2c1ccc1ccccc21 [Compound 7] |  | 100 | 4 | 0.04 |  |  | 
